# Experimental data reported in ChEMBL document CHEMBL5726731, “Substituted benzenesulfonamides as sodium channel blockers” (2019).
# Columns and labels:
# [1] = (§1) Measurement of Sodium Ion Channel Blocking Effects: In order to measure the sodium ion channel blocking effect, an IonFlux16 Auto patch clamp system (Fluxion, Inc.) and a plate for exclusive use were used. The cells were distributed in an extracellular solution (4 mM KCl, 138 mM NaCl, 1 mM MgCl2, 1.8 mM CaCl2, 5.6 mM glucose, 10 mM HEPES, pH 7.45), and then dispensed in the specified region of the plate, and each of the prepared compound samples was diluted at various concentrations, and then dispensed in the specified region of the plate.; type: cell-based
# [2] = as §1; type: cell-based; remark: listed apart in the source
IC50 [1] [nM],IC50 [2] [nM],Compound
250,,CNC1CCN(c2cc(F)ccc2Nc2cc(F)c(S(=O)(=O)Nc3ccncn3)cc2Cl)C1 (stereo not drawn)
60,> 10000,CNCCN(C)c1cc(C(F)(F)F)ccc1Nc1cc(F)c(S(=O)(=O)Nc2ncc(F)cn2)cc1Cl
1400,,CNC1CCN(c2cc(F)ccc2Nc2cc(F)c(S(=O)(=O)Nc3ncns3)cc2Cl)C1 (stereo not drawn)
390,,CNC1CCN(c2cc(F)ccc2Nc2cc(F)c(S(=O)(=O)Nc3ccn(C)n3)cc2Cl)C1 (stereo not drawn)
103,6720,C[C@@H]1CNCCN1c1cc(Cl)ccc1Nc1cc(F)c(S(=O)(=O)Nc2cscn2)cc1Cl
86,> 10000,CNC1CCN(c2c(F)cccc2Nc2cc(F)c(S(=O)(=O)Nc3cscn3)cc2Cl)C1 (stereo not drawn)
120,> 10000,CNCCN(C)c1cc(C#N)ccc1Nc1cc(F)c(S(=O)(=O)Nc2cscn2)cc1Cl
49,> 10000,CN[C@@H]1CCCN(c2cc(F)ccc2Nc2ccc(S(=O)(=O)Nc3cscn3)cc2Cl)C1
360,> 10000,CNC1CCN(c2cc(F)ccc2Nc2cc(F)c(S(=O)(=O)Nc3cc(C)on3)cc2Cl)C1 (stereo not drawn)
50,,CNCCN(C)c1cc(F)ccc1Nc1cc(F)c(S(=O)(=O)Nc2ncc(C)s2)cc1Cl
1090,> 10000,CNCCN(C)c1cc(C#N)ccc1Nc1cc(F)c(S(=O)(=O)Nc2ncc(F)cn2)cc1Cl
28,> 10000,CN1CCN(c2cc(OC(F)(F)F)ccc2Nc2cc(F)c(S(=O)(=O)Nc3cscn3)cc2Cl)CC1
53,> 10000,CNC1CCN(c2ccccc2Nc2ccc(S(=O)(=O)Nc3cscn3)c(F)c2)C1 (stereo not drawn)
58,> 10000,CNC1CCN(c2cc(C(F)(F)F)ccc2Nc2ccc(S(=O)(=O)Nc3cscn3)c(F)c2)C1 (stereo not drawn)
360,,CNCCN(C)c1cc(F)ccc1Nc1cc(F)c(S(=O)(=O)Nc2ncco2)cc1Cl
60,,CN(C)CCN(C)c1cc(F)ccc1Nc1cc(F)c(S(=O)(=O)Nc2ncc(Cl)s2)cc1Cl
,> 10000,CNC1CCN(c2cc(F)ccc2Nc2cc(F)c(S(=O)(=O)Nc3cscn3)cc2Cl)C1 (stereo not drawn)
13,> 10000,CNC1CCN(c2ccccc2Nc2ccc(S(=O)(=O)Nc3cscn3)cc2Cl)C1 (stereo not drawn)
396,> 10000,CNC1CCN(c2cc(F)ccc2Nc2ccc(S(=O)(=O)Nc3cscn3)cc2)C1 (stereo not drawn)
300,> 10000,CNC1CCN(c2cc(F)ccc2Nc2cc(F)c(S(=O)(=O)Nc3cnccn3)cc2Cl)C1 (stereo not drawn)

IC50 [1] [nM],IC50 [2] [nM],Compound
40,> 10000,CNCCN(C)c1ccccc1Nc1cc(F)c(S(=O)(=O)Nc2cscn2)cc1Cl
3670,,CN(C)CCN(C)c1ccccc1Nc1cc(F)c(S(=O)(=O)Nc2ncc(Cl)s2)cc1Cl
1500,> 10000,C[C@H]1CN(c2cc(Cl)ccc2Nc2cc(F)c(S(=O)(=O)Nc3cscn3)cc2Cl)CCN1
9,1830,CNCCN(C)c1cc(F)ccc1Nc1cc(F)c(S(=O)(=O)Nc2ncc(F)s2)cc1Cl
66,> 10000,CN[C@@H]1CCCN(c2cc(F)ccc2Nc2cc(F)c(S(=O)(=O)Nc3cscn3)cc2Cl)C1
110,> 10000,CNCCN(C)c1cc(F)ccc1Nc1cc(F)c(S(=O)(=O)Nc2ccccn2)cc1Cl
20,> 10000,CNCCN(C)c1cc(F)ccc1Nc1cc(F)c(S(=O)(=O)Nc2nccs2)cc1Cl
> 10000,,CNCCN(C)c1ccccc1Nc1cc(F)c(S(=O)(=O)Nc2cc(C(C)(C)C)on2)cc1Cl
240,,CN(C)CCN(C)c1cc(F)ccc1Nc1cc(F)c(S(=O)(=O)Nc2nccs2)cc1Cl
100,> 10000,CNCCN(C)c1ccccc1Nc1cc(F)c(S(=O)(=O)Nc2ncc(F)cn2)cc1Cl
> 10000,> 10000,CNC1CCN(c2cc(F)ccc2Nc2cc(F)c(S(=O)(=O)Nc3cncnc3)cc2Cl)C1 (stereo not drawn)
12,> 10000,CNC1CCN(c2cc(OC)ccc2Nc2cc(F)c(S(=O)(=O)Nc3cscn3)cc2Cl)C1 (stereo not drawn)
51,> 10000,CNC1CCN(c2ccccc2Nc2ccc(S(=O)(=O)Nc3cscn3)cc2)C1 (stereo not drawn)
26,> 10000,CNC1CCN(c2cc(Cl)ccc2Nc2cc(F)c(S(=O)(=O)Nc3cscn3)cc2Cl)C1 (stereo not drawn)
190,,CNCCN(C)c1cc(F)ccc1Nc1cc(F)c(S(=O)(=O)Nc2cc(C(C)(C)C)on2)cc1Cl
8,5540,CNCCN(C)c1cc(F)ccc1Nc1cc(F)c(S(=O)(=O)Nc2ncc(Cl)s2)cc1Cl
110,> 10000,CNC1CCN(c2cc(F)ccc2Nc2cc(F)c(S(=O)(=O)Nc3ncc(F)cn3)cc2Cl)C1 (stereo not drawn)
230,> 10000,CNCCN(C)c1cc(C#N)ccc1Nc1cc(F)c(S(=O)(=O)Nc2ccc(F)cn2)cc1Cl
30,8200,CNCCN(C)c1cc(C(F)(F)F)ccc1Nc1cc(F)c(S(=O)(=O)Nc2cscn2)cc1Cl
> 10000,,CNCCN(C)c1ccccc1Nc1cc(F)c(S(=O)(=O)Nc2cc(C)[nH]n2)cc1Cl
